Holding throughout (assay type): cell-based
The target of data set [1] is T1, Keap1 (Homo sapiens, UniProt Q14145). The experiment in a line: Immunostaining of endogenous Keap1 puncta in U2OS cells. More on the design: We visualized the subcellular localization of endogenous Keap1 following PINCH treatment by immunofluorescence in U2OS cells; endogenous in cells; host or cells: U2OS (ATCC HTB-96). Particulars: 250 nM. As for the experimental part:
The cells were then blocked with 5% BSA for 60 min at room temperature. Cells were stained with primary antibody, at a concentration of 1:100, for 3 h at room temperature and were then subjected to a secondary antibody conjugated to Alexa Fluor, at a concentration of 1:100–500, for 1 h at room temperature. Lastly, cells were also stained with DAPI for 10 min at room temperature.
Imaging of the cells was performed using a Dragonfly spinning disk confocal system (Andor Technology) connected to an inverted Leica Dmi8 microscope (Leica Microsystems). The signals were detected using a scientific complementary metal–oxide–semiconductor Zyla (Andor) 2,048 × 2,048 camera and the bit depth was 16. At the specified intervals, Z stacks (0.17 µm) of selected cells were acquired with an HC PL APO ×63/1.3 GLYC CORR CS2 objective (506353, Leica Microsystems).
Automatic aggregate segmentation was conducted using the surface module with manual threshold fixed for all images of the same experiment (default 2-pixel smoothing, background subtraction with 0.9-μm largest sphere, morphological split with 0.5-μm seed point diameter). […]
Spots were considered colocalized if their centers were up to 1 μm apart. We manually segmented each cell in 3D using the Surface module and quantified the number percentage and the total puncta volume percentage of colocalized spots for each cell.

Data set [2] concerns the target T1, Keap1. The experiment in a line: Global proteomics of soluble lysate of U2OS cells. Particulars: EL133 250 nM, 20 h, RIPA lysis, relative to control. As for the experimental part:
Cells were incubated with DMSO at 0.1% or with compound for 20 h unless indicated differently, in quadruplicate. […] Samples were then reduced using DTT, followed by reaction with iodoacetamide. The labeled proteins were then precipitated on a dispersion of glass beads, followed by overnight trypsin digestion and purification of peptides. Samples were analyzed using an EASY-nLC 1200 nano-flow ultrahigh-performance LC system, equipped with a PepMap RSLC C18 column (particle size: 2 µm, pore size: 100 Å, diameter: 75 µm, length: 50 cm), mounted using an EASY-Spray source onto an Exploris 240 MS instrument. LC–MS-grade solvents were used for all chromatographic steps at 300 nl min^−1. The mobile phase consisted of solvent A (H2O + 0.1% formic acid) and solvent B (80% acetonitrile + 0.1% formic acid). Peptides were eluted from the column into the MS instrument using the following gradient: 1–40% B in 160 min, 40–100% B in 5 min, maintained at 100% for 20 min, 100–1% in 10 min and finally 1% for 5 min. […] Initially, data were acquired in data-independent acquisition mode. […] Four samples were analyzed per condition.
Data analysis was performed using Fragpipe[87],[88] […] Label-free quantification was performed using DIANN. After analysis, the quantified protein file was analyzed using Perseus[89]. […] Differences and P values were calculated using a double-sided Student’s t-test. […]

Data set [3] concerns RAS GTPase-activating protein-binding protein 1. The experiment in a line: Colocalization with RAS GTPase-activating protein-binding protein 1 (stress granules).
Another data set has as its system U2OS cells. The experiment in a line: Viability measurements, U2OS cells. As for the experimental part:
Cells were seeded in a transparent-bottom, black 96-well plate, at 15,000 cells per well in sixfold replications. in 90 µl of medium and left to adhere for at least 4 h. The cells were then treated with the respective compound by adding 10 µl of medium–-compound mixture for a final volume of 100 µl in each well. Cell-Titer blue reagent was used to measure viability according to the manufacturer’s instructions. Plate reader measurements were performed on a Tecan Spark Control 10 M fluorescence system.

pIC50: −log10 of the molar value.

T1 sequence (Q14145 whole entry): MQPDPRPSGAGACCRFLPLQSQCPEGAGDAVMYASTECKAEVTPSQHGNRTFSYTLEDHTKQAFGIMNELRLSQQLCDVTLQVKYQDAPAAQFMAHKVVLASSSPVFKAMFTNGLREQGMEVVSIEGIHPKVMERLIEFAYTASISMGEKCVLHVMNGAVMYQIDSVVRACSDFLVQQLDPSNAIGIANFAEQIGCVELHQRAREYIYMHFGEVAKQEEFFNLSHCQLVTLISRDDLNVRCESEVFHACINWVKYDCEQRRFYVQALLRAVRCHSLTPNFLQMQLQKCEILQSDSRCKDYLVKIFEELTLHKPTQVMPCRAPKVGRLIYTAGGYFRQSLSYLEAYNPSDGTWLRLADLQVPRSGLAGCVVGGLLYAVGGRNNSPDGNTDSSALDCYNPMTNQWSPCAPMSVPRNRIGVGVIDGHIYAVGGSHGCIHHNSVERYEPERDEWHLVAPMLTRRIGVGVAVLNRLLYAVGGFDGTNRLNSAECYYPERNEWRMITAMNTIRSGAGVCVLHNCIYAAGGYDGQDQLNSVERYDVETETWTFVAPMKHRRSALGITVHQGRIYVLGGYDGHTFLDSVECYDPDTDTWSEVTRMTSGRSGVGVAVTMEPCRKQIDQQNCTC

In the case of `CC1(C)CCC2(C(=O)NCCOCCOCCNC(=O)C34CCC(C)(C)CC3C3C(=O)C=C5C6(C)C=C(C#N)C(=O)C(C)(C)C6CCC5(C)C3(C)CC4)CCC3(C)C(C(=O)C=C4C5(C)C=C(C#N)C(=O)C(C)(C)C5CCC43C)C2C1` (centres unmarked) [EL133], on Keap1 [1], the “Keap1 puncta (immunofluorescence)” value was “bright punctate structures”. For the same compound, the “Keap1 level in soluble fraction (quantitative proteomics)” value on Keap1 [2] is “significantly downregulated”. In addition, in data set [3], the “formation of stress granules” value is “does not induce the formation of its characteristic stress granules”. In the data set with U2OS cells, the “difference in viability IC50 over BDX” value is recorded as “threefold”. The pIC50 in the data set with U2OS cells (Homo sapiens, 72 h) was 6.60.

One may read the pIC50 as the IC50 on a negative log10 scale, so that one unit is a factor of ten.

(Values after paper PMC13503280, “A pharmacological modality to sequester homomeric proteins” (Nature Chemical Biology, 2026).)
